Experimental data: patent publication US20100099561A1, “HETEROBICYCLIC ALKYLTHIO-BRIDGED ISOXAZOLINES” (E.I. DU PONT DE NEMOURS AND COMPANY, priority 2008, published 2010)

What was measured:
Format in all cases: in vivo
[1] = tested on: Surinam grass (Brachiaria decumbens); test: Test B preemergence, Surinam grass; details: Preemergence, scale 0 to 100
Source text: (§1) Seeds of plant species selected from blackgrass (Alopecurus myosuroides), downy bromegrass (Bromus tectorum), green foxtail (Setaria viridis), Italian ryegrass (Lolium multiflorum), wheat (Triticum aestivum), wild oat (Avena fatua), catchweed bedstraw (Galium aparine), bermudagrass (Cynodon dactylon), Surinam grass (Brachiaria decumbens), cocklebur (Xanthium strumarium), corn (Zea mays), large crabgrass (Digitaria sanguinalis), woolly cupgrass (Eriochloa villosa), giant foxtail (Setaria faberii), goosegrass (Eleusine indica), johnsongrass (Sorghum halepense), kochia (Kochia scoparia), lambsquarters (Chenopodium album), morningglory (Ipomoea coccinea), nightshade (eastern black nightshade, Solanum ptycanthum), yellow nutsedge (Cyperus esculentus), pigweed (Amaranthus retroflexus), ragweed (common ragweed, Ambrosia elatior), soybean (Glycine max), sunflower (common oilseed sunflower, Helianthus annuus), Russian thistle (Salsola kali), and velvetleaf (Abutilon theophrasti) were planted into a blend of loam soil and sand and treated preemergence with test compounds formulated in a non-phytotoxic solvent mixture which included a surfactant. Treated plants and controls were maintained in a greenhouse for 13 to 15 days, after which time all species were compared to controls and visually evaluated. Plant response ratings, summarized in Table B, are based on a scale of 0 to 100 where 0 is no effect and 100 is complete control. A dash (-) response means no test result.

kochia (Kochia scoparia) = test: Test B preemergence, kochia; details: scale 0 to 100
Source text: as §1

[2] = tested on: sunflower (common oilseed sunflower, Helianthus annuus); test: Test B preemergence, sunflower; details: Preemergence, scale 0 to 100
Source text: as §1

[3] = tested on: ragweed (common ragweed, Ambrosia elatior); test: Test B preemergence, ragweed; details: scale 0 to 100
Source text: as §1

[4] = tested on: velvetleaf (Abutilon theophrasti); test: Test A preemergence, velvetleaf; details: 0 to 100 scale (0 no effect, 100 complete control)
Procedure, shortened: (§2)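 Sow seeds in loam–sand blend; spray soil directly (pre) and treat emerged one- to two-leaf plants 2–10 cm tall (post) with compound in surfactant-containing non-phytotoxic solvent. Keep in greenhouse about ten days. Score injury visually against controls from 0 to 100.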

[5] = tested on: catchweed bedstraw (Galium aparine); test: Test B preemergence, catchweed bedstraw; details: scale 0 to 100
Source text: as §1

[6] = tested on: Russian thistle (Salsola kali); test: Test B preemergence, Russian thistle; details: scale 0 to 100
Source text: as §1

[7] = tested on: barnyardgrass (Echinochloa crus-galli); test: Test A preemergence, barnyardgrass; details: 0 to 100 scale (0 no effect, 100 complete control)
Procedure, shortened: as §2

## CC1(C)CC(S(=O)(=O)Cc2c(C(F)(F)F)nc3n(c2=O)CCO3)=NO1 [Compound 2, 6-[[(4,5-dihydro-5,5-dimethyl-3-isoxazolyl)sulfonyl]methyl]-2,3-dihydro-7-(trifluoromethyl)-5H-oxazolo[3,2-α]pyrimidin-5-one]
[1]; 16 g ai/ha
  Plant response rating, Surinam Grass: 0
[1]; 31 g ai/ha
  Plant response rating, Surinam Grass: 80
[1]; 62 g ai/ha
  Plant response rating, Surinam Grass: 80
Kochia (Kochia scoparia); 8 g ai/ha
  Plant response rating, Kochia: 0
Kochia (Kochia scoparia); 16 g ai/ha
  Plant response rating, Kochia: 0
Kochia (Kochia scoparia); 31 g ai/ha
  Plant response rating, Kochia: 75
Kochia (Kochia scoparia); 62 g ai/ha
  Plant response rating, Kochia: 70
[2]; 16 g ai/ha
  Plant response rating, Sunflower: 0
[2]; 31 g ai/ha
  Plant response rating, Sunflower: 0
[2]; 62 g ai/ha
  Plant response rating, Sunflower: 0
[3]; 31 g ai/ha
  Plant response rating, Ragweed: 0
[3]; 62 g ai/ha
  Plant response rating, Ragweed: 20
[4]; 125 g ai/ha
  Plant response rating, Velvetleaf: 10
[4]; 500 g ai/ha
  Plant response rating, Velvetleaf: 90
[5]; 8 g ai/ha
  Plant response rating, Galium: 0
[5]; 16 g ai/ha
  Plant response rating, Galium: 100
[5]; 31 g ai/ha
  Plant response rating, Galium: 100
[5]; 62 g ai/ha
  Plant response rating, Galium: 100
[6]; 8 g ai/ha
  Plant response rating, Russian Thistle: 0
[6]; 16 g ai/ha
  Plant response rating, Russian Thistle: 0
[6]; 31 g ai/ha
  Plant response rating, Russian Thistle: 0
[6]; 62 g ai/ha
  Plant response rating, Russian Thistle: 0
[7]; 125 g ai/ha
  Plant response rating, Barnyardgrass: 80
[7]; 500 g ai/ha
  Plant response rating, Barnyardgrass: 90

## CC1(C)CC(S(=O)(=O)Cc2c(C(F)(F)F)nc3n(c2=O)CCC3)=NO1 [Compound 11, 3-[[(4,5-dihydro-5,5-dimethyl-3-isoxazolyl)sulfonyl]methyl]-7,8-dihydro-2-(trifluoromethyl)pyrrolo[1,2-α]pyrimidin-4(6H)-one]
[1]; 16 g ai/ha
  Plant response rating, Surinam Grass: 0
[1]; 31 g ai/ha
  Plant response rating, Surinam Grass: 0
[1]; 62 g ai/ha
  Plant response rating, Surinam Grass: 0
[1]; 125 g ai/ha
  Plant response rating, Surinam Grass: 85
[2]; 16 g ai/ha
  Plant response rating, Sunflower: 0
[2]; 31 g ai/ha
  Plant response rating, Sunflower: 0
[2]; 62 g ai/ha
  Plant response rating, Sunflower: 0
[2]; 125 g ai/ha
  Plant response rating, Sunflower: 20
[3]; 16 g ai/ha
  Plant response rating, Ragweed: 0
[3]; 31 g ai/ha
  Plant response rating, Ragweed: 40
[3]; 62 g ai/ha
  Plant response rating, Ragweed: 50
[3]; 125 g ai/ha
  Plant response rating, Ragweed: 55
[4]; 125 g ai/ha
  Plant response rating, Velvetleaf: 10
[4]; 500 g ai/ha
  Plant response rating, Velvetleaf: 60
[5]; 16 g ai/ha
  Plant response rating, Galium: 0
[5]; 31 g ai/ha
  Plant response rating, Galium: 0
[5]; 62 g ai/ha
  Plant response rating, Galium: 95
[5]; 125 g ai/ha
  Plant response rating, Galium: 98
[7]; 125 g ai/ha
  Plant response rating, Barnyardgrass: 60
[7]; 500 g ai/ha
  Plant response rating, Barnyardgrass: 90

## CC1(C)CC(S(=O)(=O)Cc2c(C(F)(F)F)nc3ccsn3c2=O)=NO1 [Compound 16]
[1]; 16 g ai/ha
  Plant response rating, Surinam Grass: 0
[1]; 31 g ai/ha
  Plant response rating, Surinam Grass: 55
[1]; 62 g ai/ha
  Plant response rating, Surinam Grass: 95
[1]; 125 g ai/ha
  Plant response rating, Surinam Grass: 98
Kochia (Kochia scoparia); 16 g ai/ha
  Plant response rating, Kochia: 0
Kochia (Kochia scoparia); 31 g ai/ha
  Plant response rating, Kochia: 0
Kochia (Kochia scoparia); 62 g ai/ha
  Plant response rating, Kochia: 0
Kochia (Kochia scoparia); 125 g ai/ha
  Plant response rating, Kochia: 0
[2]; 16 g ai/ha
  Plant response rating, Sunflower: 0
[2]; 31 g ai/ha
  Plant response rating, Sunflower: 0
[2]; 62 g ai/ha
  Plant response rating, Sunflower: 0
[2]; 125 g ai/ha
  Plant response rating, Sunflower: 0
[3]; 16 g ai/ha
  Plant response rating, Ragweed: 0
[3]; 31 g ai/ha
  Plant response rating, Ragweed: 0
[3]; 62 g ai/ha
  Plant response rating, Ragweed: 0
[3]; 125 g ai/ha
  Plant response rating, Ragweed: 0
[4]; 125 g ai/ha
  Plant response rating, Velvetleaf: 50
[4]; 500 g ai/ha
  Plant response rating, Velvetleaf: 60
[5]; 16 g ai/ha
  Plant response rating, Galium: 0
[5]; 31 g ai/ha
  Plant response rating, Galium: 0
[5]; 62 g ai/ha
  Plant response rating, Galium: 0
[5]; 125 g ai/ha
  Plant response rating, Galium: 70
[7]; 125 g ai/ha
  Plant response rating, Barnyardgrass: 50
[7]; 500 g ai/ha
  Plant response rating, Barnyardgrass: 80

## CC1(C)CC(S(=O)(=O)Cc2c(C(F)(F)Cl)nc3n(c2=O)CCC3)=NO1 [Compound 18]
[1]; 16 g ai/ha
  Plant response rating, Surinam Grass: 0
[1]; 31 g ai/ha
  Plant response rating, Surinam Grass: 40
[1]; 62 g ai/ha
  Plant response rating, Surinam Grass: 75
[1]; 125 g ai/ha
  Plant response rating, Surinam Grass: 85
Kochia (Kochia scoparia); 16 g ai/ha
  Plant response rating, Kochia: 0
Kochia (Kochia scoparia); 31 g ai/ha
  Plant response rating, Kochia: 0
Kochia (Kochia scoparia); 62 g ai/ha
  Plant response rating, Kochia: 55
Kochia (Kochia scoparia); 125 g ai/ha
  Plant response rating, Kochia: 100
[2]; 16 g ai/ha
  Plant response rating, Sunflower: 0
[2]; 31 g ai/ha
  Plant response rating, Sunflower: 0
[2]; 62 g ai/ha
  Plant response rating, Sunflower: 0
[2]; 125 g ai/ha
  Plant response rating, Sunflower: 0
[3]; 16 g ai/ha
  Plant response rating, Ragweed: 0
[3]; 31 g ai/ha
  Plant response rating, Ragweed: 0
[3]; 62 g ai/ha
  Plant response rating, Ragweed: 0
[3]; 125 g ai/ha
  Plant response rating, Ragweed: 0
[4]; 125 g ai/ha
  Plant response rating, Velvetleaf: 0
[4]; 500 g ai/ha
  Plant response rating, Velvetleaf: 60
[5]; 62 g ai/ha
  Plant response rating, Galium: 0
[5]; 125 g ai/ha
  Plant response rating, Galium: 0
[7]; 125 g ai/ha
  Plant response rating, Barnyardgrass: 70
[7]; 500 g ai/ha
  Plant response rating, Barnyardgrass: 100

## CC1(C)CC(S(=O)(=O)Cc2c(C(F)(F)C(F)(F)F)nc3n(c2=O)CCCC3)=NO1 [Compound 21]
[1]; 16 g ai/ha
  Plant response rating, Surinam Grass: 50
[1]; 31 g ai/ha
  Plant response rating, Surinam Grass: 50
[1]; 62 g ai/ha
  Plant response rating, Surinam Grass: 50
[1]; 125 g ai/ha
  Plant response rating, Surinam Grass: 100
Kochia (Kochia scoparia); 16 g ai/ha
  Plant response rating, Kochia: 0
Kochia (Kochia scoparia); 62 g ai/ha
  Plant response rating, Kochia: 60
Kochia (Kochia scoparia); 125 g ai/ha
  Plant response rating, Kochia: 80
[2]; 16 g ai/ha
  Plant response rating, Sunflower: 0
[2]; 31 g ai/ha
  Plant response rating, Sunflower: 0
[2]; 62 g ai/ha
  Plant response rating, Sunflower: 0
[2]; 125 g ai/ha
  Plant response rating, Sunflower: 10
[3]; 16 g ai/ha
  Plant response rating, Ragweed: 0
[3]; 31 g ai/ha
  Plant response rating, Ragweed: 0
[3]; 62 g ai/ha
  Plant response rating, Ragweed: 0
[3]; 125 g ai/ha
  Plant response rating, Ragweed: 10
[4]; 125 g ai/ha
  Plant response rating, Velvetleaf: 0
[4]; 500 g ai/ha
  Plant response rating, Velvetleaf: 60
[5]; 16 g ai/ha
  Plant response rating, Galium: 0
[5]; 31 g ai/ha
  Plant response rating, Galium: 0
[5]; 62 g ai/ha
  Plant response rating, Galium: 30
[5]; 125 g ai/ha
  Plant response rating, Galium: 50
[6]; 16 g ai/ha
  Plant response rating, Russian Thistle: 0
[6]; 31 g ai/ha
  Plant response rating, Russian Thistle: 60
[6]; 62 g ai/ha
  Plant response rating, Russian Thistle: 65
[6]; 125 g ai/ha
  Plant response rating, Russian Thistle: 85
[7]; 125 g ai/ha
  Plant response rating, Barnyardgrass: 90
[7]; 500 g ai/ha
  Plant response rating, Barnyardgrass: 100

## CC1(C)CC(S(=O)(=O)Cc2c(C(F)(F)C(F)(F)F)nc3n(c2=O)CCC3)=NO1 [Compound 22]
[1]; 16 g ai/ha
  Plant response rating, Surinam Grass: 0
[1]; 31 g ai/ha
  Plant response rating, Surinam Grass: 0
[1]; 62 g ai/ha
  Plant response rating, Surinam Grass: 90
[1]; 125 g ai/ha
  Plant response rating, Surinam Grass: 95
Kochia (Kochia scoparia); 16 g ai/ha
  Plant response rating, Kochia: 0
Kochia (Kochia scoparia); 31 g ai/ha
  Plant response rating, Kochia: 0
Kochia (Kochia scoparia); 62 g ai/ha
  Plant response rating, Kochia: 0
Kochia (Kochia scoparia); 125 g ai/ha
  Plant response rating, Kochia: 70
[2]; 16 g ai/ha
  Plant response rating, Sunflower: 0
[2]; 31 g ai/ha
  Plant response rating, Sunflower: 0
[2]; 62 g ai/ha
  Plant response rating, Sunflower: 0
[2]; 125 g ai/ha
  Plant response rating, Sunflower: 50
[3]; 16 g ai/ha
  Plant response rating, Ragweed: 0
[3]; 31 g ai/ha
  Plant response rating, Ragweed: 0
[3]; 62 g ai/ha
  Plant response rating, Ragweed: 30
[3]; 125 g ai/ha
  Plant response rating, Ragweed: 50
[4]; 125 g ai/ha
  Plant response rating, Velvetleaf: 30
[4]; 500 g ai/ha
  Plant response rating, Velvetleaf: 90
[5]; 16 g ai/ha
  Plant response rating, Galium: 0
[5]; 31 g ai/ha
  Plant response rating, Galium: 0
[5]; 62 g ai/ha
  Plant response rating, Galium: 0
[5]; 125 g ai/ha
  Plant response rating, Galium: 0
[6]; 31 g ai/ha
  Plant response rating, Russian Thistle: 0
[6]; 62 g ai/ha
  Plant response rating, Russian Thistle: 30
[6]; 125 g ai/ha
  Plant response rating, Russian Thistle: 60
[7]; 125 g ai/ha
  Plant response rating, Barnyardgrass: 80
[7]; 500 g ai/ha
  Plant response rating, Barnyardgrass: 90
